The conditions of data set [1]: cited from earlier work.
Data set [2] in a line: Phase 3 extension study: rapid IM injection of Compound 1, pain and injection site reactions. The data set is classed as in vivo, human. The following applies: fast injection. How it is done: Injection site reactions and pain upon IM injection of Compound 1 are a potential safety concern. A Phase 3, multicenter, extension study was conducted in 81 sites to assess the effect of rapid IM injections of Compound 1 on human patients diagnosed with stable schizophrenia. Briefly, 332 subjects enrolled in the study were assigned PFS. Compound 1 is formulated as a pre-filled syringe (PFS) of an extended release aqueous suspension of a therapeutically effective amount of Compound 1. An injection volume of 3.4 mL or 1.6 mL of the aqueous suspension was administered according to protocol I at a rate of less than 10 seconds by inserting the 20 gauge needle in the gluteal muscle. ISRs upon IM injection of Compound 1 were assessed at each visit. Over 5000 injections of Compound 1 have been administered intramuscularly with an ISR rate of less than 1%.
• 1. TAP the pre-filled syringe at least 10 times to dislodge any material that may have settled. • 2. […] Replace with new needle (Steps 3 & 4) and administer into an adjacent site in the same gluteal muscle (Steps 5 & 6).] • If you are unable to complete the injection, replace with new needle (Steps 3 & 4) and readminister into an adjacent site in the same gluteal muscle (Steps 5 & 6). • 7. […]

As for `O=C1CCc2ccc(OCCCCN3CCN(c4cccc(Cl)c4Cl)CC3)cc2N1` [aripiprazole free base, 7-{4-[4-(2,3-dichlorophenyl)-1-piperazinyl]butoxy}-3,4-dihydro-2(1H)-quinolinone], in data set [1] (following intramuscular (IM) injection and subcutaneous (SC) injection), the Tissue irritation result is on record as “moderate to severe”. Besides, the Pharmacokinetic profile entry in data set [1] (injections) is recorded as “prolonged”.
Regarding `CCCCCCCCCCCC(=O)OCN1C(=O)CCc2ccc(OCCCCN3CCN(c4cccc(Cl)c4Cl)CC3)cc21` [Compound 1, (7-(4-(4-(2,3-dichlorophenyl)piperazin-1-yl)butoxy)-2-oxo-3,4-dihydroquinolin-1(2H)-yl)methyl dodecanoate], the “injection site reactions and/or elevated pain levels reported, % of patients” value in data set [2] is less than 1%.

The values are drawn from patent publication US12653822B2, “Aripiprazole formulations having increased injection speeds” (ALKERMES PHARMA IRELAND LIMITED, priority 2014, dated 2026).
